Experimental data from patent US20230240290A1, “USE OF (Z)-3-HEXENYL ESTERS AND METHOD FOR PROTECTING PLANTS AGAINST PESTS” (UNIVERSITAT POLITÈCNICA DE VALÈNCIA, priority 2020, published 2023).

What was measured:
[1] = tested on: PIN2 (marker gene for the JA signaling pathway); test: Field (commercial greenhouse) assay, transcriptional response of PIN2 in tomato plants; type: in vivo, tomato cv Raf; details: LD dispenser every 20 m2, at 30 and 60 days
Method: To know the behavior of the dispensers loaded with (Z)-3-hexenyl propionate under real cultivation conditions, four commercial greenhouses for tomato cv Raf located in Xilxes (Castellón province), with a history of problems with T. absoluta contamination at the end of winter, were selected. An experimental design of randomized blocks was carried out where each greenhouse was considered a block with two treatments per block and 4 repetitions per treatment. […]
Twenty plants randomly chosen by repetition were sampled weekly for 11 weeks, beginning 30 Jan. […] First, the number of leaflets infested by T. absoluta per plant was counted. Then the number of N. tenuis (adults and nymphs) throughout the apical third of each plant (leaves, flowers and shoots) was counted. Following the methodology described above, 6 samples were taken from the apical part of each plant per repetition, and these samples were immediately introduced into liquid nitrogen to quantify the expression of the PR1 and PIN2 genes (described in Example 1 and Example 2). The expression of these genes was quantified one day before, 4, and 8 weeks after hanging the dispensers in the greenhouses.

[2] = tested on: LOX2 (precursor of JA jasmonic acid); test: Transcriptional response of LOX2 in Carrizo citrange plants exposed to the volatile; type: in vivo; details: intact Carrizo citrange plants exposed 24 h; n=6
Method: (§1) Two weeks after seed germination, the seedlings were individually transplanted into pots (8×8×8 cm). The plants were kept in a greenhouse with a plastic cover at approximate climatic conditions of 25±5° C., a relative humidity of 65%±5%, and a natural light photoperiod, about 14:10 h (light:dark). Carrizo citrange plants that had not received any pesticide treatment at 8 weeks of age (approximately 20 cm tall) were used. The volatile (Z)-3-hexenyl propanoate was obtained from Sigma-Aldrich (St. Louis, Mo., USA). The volatile was exposed by using a 2×2 cm piece of filter paper on which 10 μl of a solution containing the corresponding volatile at a concentration of 1:10,000 [(Z)-3-hexenyl propanoate:methanol] was impregnated as an emitting source of the corresponding volatile (Pérez-Hedo, M. et al. Biocontrol, 63: 203-213 (2018)). […]
(§2) The methodology followed for the extraction and quantification of gene expression was described by Pérez-Hedo et al. Journal of Pest Science 3: 543-554 (2015). The primers used were forward primer: 5′-[…]-3′ (SEQ ID NO: 11) and reverse primer: 5′-[…]-3′ (SEQ ID NO: 12) for the quantification of LOX2, forward primer: 5′-[…]-3′ (SEQ ID NO: 13) and reverse primer: 5′-[…]-3′ (SEQ ID NO: 14) for PAL and forward primer: 5′-[…]-3′ (SEQ ID NO: 15) and reverse primer: 5′-[…]-3′ (SEQ ID NO: 16) for the NPR5 gene. […]

[3] = tested on: PAL (salicylic acid pathway); test: Transcriptional response of PAL in Carrizo citrange plants exposed to the volatile; type: in vivo; details: intact Carrizo citrange plants exposed 24 h; n=6
Method: as §1, §2

[4] = tested on: Diaphorina citri; test: Citrus field assay with sentinel Murraya paniculata seedlings with and without dispenser; type: in vivo
Method: A Valencia orange field with a high presence of receptive shoots and a population of D. citri adults located in the experimental fields of SWFREC (University of Florida) was selected. […] Sentinel plants that were hung inside the tree canopy were used. The sentinel plants were seedlings of Murraya paniculata with shoots receptive to the laying of D. citri. 7 seedlings with a dispenser (polymeric dispenser that was loaded with 1.5 ml of (Z)-3-hexenyl propanoate) and 7 seedlings without a dispenser were used. Each seedling was distributed in the field following a random block design (using a row of trees as a block), and one seedling with a dispenser and another one without was placed in each block. The seedlings were located at a minimum distance of 50 meters from each other to avoid any edge effect.
After 4 days of placing the seedlings, these were collected from the field and taken to the laboratory, where the number of eggs per shoot in each of the seedlings was counted under a binocular loupe.

Question: How did the “Expression of PIN2 compared to plants in the control zone” value [1] turn out when `CC/C=C\CCOC(=O)CC` [(Z)-3-hexenyl propanoate] was run?
Answer: significantly higher

Question: What about the “Transcriptional response of LOX2 compared to control” value [2] of the same molecule?
Answer: significantly overexpressed

Question: What about the “Transcriptional response of PAL compared to control” value [3] of the same molecule?
Answer: significantly overexpressed

Question: What about the “Reduction of D. citri (laying, eggs per shoot)” value ([4]; Valencia orange field, Murraya paniculata sentinel seedlings, dispenser with 1.5 ml, 4 days) of the same molecule?
Answer: more than 70%

Question: And the “Laying of D. citri” value ([4]; citrus plant exposed to the volatile, summary statement)?
Answer: reduced by more than half
